Test results taken from PubChem BioAssay AID256 (DTP/NCI, 2004).
Where “and” joins values, the source holds several entries; their conditions need not be identical. Equal values may be shown once. Inconclusive results and toxic doses are left out. How the source made its calls: active means survival T/C of 150% or more; inactive means T/C below 125% in these data.

System: CD2F1 mice, L1210 leukemia ip, survival T/C
Test: NCI In Vivo Anticancer Drug Screen. Data for tumor model L1210 Leukemia (intraperitoneal) in CD2F1 (CDF1) mice
Conditions: endpoint: mean survival time, higher = longer survival
In short: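 In this screen, transplantable tumors were grown in mice given either the compound or its vehicle. Results were expressed as the treated measurement relative to the control measurement.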

[1] = dose: 100.0 mg/kg/injection, schedule: Q01DX009 (ip), vehicle: saline with Tween-80
[2] = dose: 150.0 mg/kg/injection, schedule: Q01DX001 (ip), vehicle: other
[3] = dose: 150.0 mg/kg/injection, schedule: Q01DX001 (ip), vehicle: saline
[4] = dose: 300.0 mg/kg/injection, schedule: Q01DX001 (ip), vehicle: saline
[5] = dose: 100.0 mg/kg/injection, schedule: Q04DX002 (ip), vehicle: saline with Tween-80
[6] = dose: 100.0 mg/kg/injection, schedule: Q04DX003 (ip), vehicle: saline with Tween-80
[7] = dose: 12.5 mg/kg/injection, schedule: Q01DX009 (ip), vehicle: saline with Tween-80
[8] = dose: 25.0 mg/kg/injection, schedule: Q01DX009 (ip), vehicle: saline with Tween-80
[9] = dose: 50.0 mg/kg/injection, schedule: Q01DX009 (ip), vehicle: saline with Tween-80
[10] = dose: 200.0 mg/kg/injection, schedule: Q04DX003 (ip), vehicle: saline with Tween-80
[11] = dose: 400.0 mg/kg/injection, schedule: Q04DX003 (ip), vehicle: saline with Tween-80
[12] = dose: 75.0 mg/kg/injection, schedule: Q01DX001 (ip), vehicle: other
[13] = dose: 100.0 mg/kg/injection, schedule: Q01DX001 (ip), vehicle: saline with Tween-80
[14] = dose: 200.0 mg/kg/injection, schedule: Q01DX001 (ip), vehicle: saline with Tween-80
[15] = dose: 200.0 mg/kg/injection, schedule: Q01DX009 (ip), vehicle: saline with Tween-80
[16] = dose: 400.0 mg/kg/injection, schedule: Q01DX009 (ip), vehicle: saline with Tween-80

Measured: T/C

COC1=C(C)C(=O)C2=C(C1=O)C(COC(N)=O)C1(OC)C3C(CN21)N3C(=O)c1ccccc1 (configuration not stated)
inactive: dose: 7.5 mg/kg/injection, schedule: Q01DX001 (ip), vehicle: acetone 106 % of control | dose: 10.0 mg/kg/injection, schedule: Q01DX001 (ip), vehicle: acetone 112 % of control | dose: 15.0 mg/kg/injection, schedule: Q01DX001 (ip), vehicle: acetone 112 % of control

O=C(Nc1ccc(Cl)c(C(F)(F)F)c1)Nc1cc(C(F)(F)F)ccc1Sc1cc(Cl)c(Cl)cc1S(=O)(=O)O
inactive: [1] 101 % of control

CC1=C(/C=C/C(C)=C/C=C/C(C)=C/CO)C(C)(C)CCC1
inactive: dose: 150.0 mg/kg/injection, schedule: Q01DX001 (ip), vehicle: alkali diluted with saline 102 % of control | dose: 150.0 mg/kg/injection, schedule: Q01DX001 (ip), vehicle: distilled water + alcohol 112 % of control | [2] 112 % of control | [3] 102 % of control | dose: 150.0 mg/kg/injection, schedule: Q11HX001 (ip), vehicle: saline 102 % of control | dose: 300.0 mg/kg/injection, schedule: Q01DX001 (ip), vehicle: alkali diluted with saline 99 % of control and 100 % of control | dose: 300.0 mg/kg/injection, schedule: Q01DX001 (ip), vehicle: distilled water + alcohol 108 % of control | dose: 300.0 mg/kg/injection, schedule: Q01DX001 (ip), vehicle: other 108 % of control | [4] 103 % of control | dose: 300.0 mg/kg/injection, schedule: Q11HX001 (ip), vehicle: saline 103 % of control

CCOC(=O)Nc1cc(NCCCCc2ccccc2)c([N+](=O)[O-])c(N)n1
inactive: dose: 12.5 mg/kg/injection, schedule: Q01DX001 (ip), vehicle: Klucel (hydroxypropylcellulose) (HPC) 97 % of control | dose: 25.0 mg/kg/injection, schedule: Q01DX001 (ip), vehicle: Klucel (hydroxypropylcellulose) (HPC) 103 % of control | dose: 50.0 mg/kg/injection, schedule: Q01DX001 (ip), vehicle: Klucel (hydroxypropylcellulose) (HPC) 89 % of control

O=[N+]([O-])c1ccc(Oc2ccc(S(=O)(=O)O)cc2)cc1
inactive: dose: 25.0 mg/kg/injection, schedule: Q04DX002 (ip), vehicle: saline with Tween-80 95 % of control | dose: 50.0 mg/kg/injection, schedule: Q04DX002 (ip), vehicle: saline with Tween-80 103 % of control | [5] 91 % of control

COc1ccccc1N1CCCSC1=Nc1ccccc1
inactive: dose: 100.0 mg/kg/injection, schedule: Q04DX002 (ip), vehicle: saline 98 % of control | dose: 200.0 mg/kg/injection, schedule: Q04DX002 (ip), vehicle: saline 94 % of control

CC1=CCC=C(CNc2ncnc3nc[nH]c23)C1
inactive: [6] 87 % of control

COP12(OCCO1)SC(C(F)(F)F)=C(C(F)(F)F)S2
inactive: [7] 102 % of control and 109 % of control | [8] 96 % of control and 101 % of control | [9] 100 % of control

CC(C)NC(=O)CCCCn1c(=O)c2ccccc2c(=O)n1C
inactive: dose: 25.0 mg/kg/injection, schedule: Q04DX003 (ip), vehicle: saline 96 % of control | dose: 50.0 mg/kg/injection, schedule: Q04DX003 (ip), vehicle: saline 96 % of control | dose: 100.0 mg/kg/injection, schedule: Q04DX003 (ip), vehicle: saline 98 % of control | dose: 200.0 mg/kg/injection, schedule: Q04DX003 (ip), vehicle: saline 113 % of control | dose: 400.0 mg/kg/injection, schedule: Q04DX003 (ip), vehicle: saline 104 % of control

CN(C)c1ccc(N=Nc2cccc(Cl)c2Cl)cc1
inactive: [8] 102 % of control | [9] 97 % of control | [1] 105 % of control | [6] 95 % of control | [10] 98 % of control | [11] 104 % of control

CC(N)(C(=O)O)c1ccccc1 (configuration not stated)
inactive: dose: 100.0 mg/kg/injection, schedule: Q01DX001 (ip), vehicle: other 92 % of control and 96 % of control | dose: 200.0 mg/kg/injection, schedule: Q01DX001 (ip), vehicle: other 100 % of control and 102 % of control | dose: 400.0 mg/kg/injection, schedule: Q01DX001 (ip), vehicle: other 96 % of control and 94 % of control

COc1ccc(Br)cc1C1OC(=O)c2c(OC)c(OC)cc(N)c21 (configuration not stated)
inactive: [6] 98 % of control | [10] 92 % of control | [11] 88 % of control

Nc1nc(NC(c2ccc(Cl)cc2)c2ccc(Cl)cc2)c2[nH]cnc2n1
inactive: [12] 103 % of control | [2] 101 % of control

Cc1cc(C)c(S(=O)(=O)F)cc1C(=O)O
inactive: [13] 101 % of control | [1] 96 % of control and 100 % of control | [5] 92 % of control and 104 % of control | [6] 107 % of control | [14] 95 % of control | [15] 93 % of control and 94 % of control | dose: 200.0 mg/kg/injection, schedule: Q04DX002 (ip), vehicle: saline with Tween-80 96 % of control and 104 % of control | [10] 102 % of control | [16] 96 % of control | dose: 400.0 mg/kg/injection, schedule: Q04DX002 (ip), vehicle: saline with Tween-80 94 % of control and 102 % of control | [11] 100 % of control

CCNC(=S)N1c2c(nc(N)[nH]c2=O)NCC1CNc1ccc(C(=O)NC(CCC(=O)O)C(=O)O)cc1 (configuration not stated)
inactive: dose: 100.0 mg/kg/injection, schedule: Q01DX001 (ip), vehicle: alkali diluted with saline 98 % of control | dose: 200.0 mg/kg/injection, schedule: Q01DX001 (ip), vehicle: alkali diluted with saline 101 % of control | dose: 400.0 mg/kg/injection, schedule: Q01DX001 (ip), vehicle: alkali diluted with saline 103 % of control

Cc1ccc(Cl)c(S(=O)(=O)F)c1
inactive: [1] 88 % of control | [6] 106 % of control | [15] 103 % of control | [10] 93 % of control | [16] 101 % of control | [11] 100 % of control

CN(C)c1ccc(/C=N/NC(=O)CC2CCCCC2)cc1
inactive: [1] 90 % of control | [15] 93 % of control | [16] 93 % of control

CCCSc1ccccc1
inactive: dose: 100.0 mg/kg/injection, schedule: Q01DX001 (ip), vehicle: saline 100 % of control | dose: 200.0 mg/kg/injection, schedule: Q01DX001 (ip), vehicle: saline 102 % of control

COc1cc(Cl)ccc1NC(=O)OCCOc1c(C(C)C)cccc1C(C)C
inactive: [9] 101 % of control | [1] 101 % of control | [15] 89 % of control

CC(=O)Oc1c(C)ncc(C=O)c1C
inactive: [12] 101 % of control | [2] 100 % of control

CN(C)N=Nc1ccccc1C(N)=O
inactive: dose: 18.8 mg/kg/injection, schedule: Q01DX009 (ip), vehicle: Klucel (hydroxypropylcellulose) (HPC) 106 % of control | dose: 37.5 mg/kg/injection, schedule: Q01DX009 (ip), vehicle: Klucel (hydroxypropylcellulose) (HPC) 117 % of control and 106 % of control | dose: 75.0 mg/kg/injection, schedule: Q01DX009 (ip), vehicle: Klucel (hydroxypropylcellulose) (HPC) 116 % of control and 123 % of control | dose: 150.0 mg/kg/injection, schedule: Q01DX009 (ip), vehicle: Klucel (hydroxypropylcellulose) (HPC) 123 % of control and 86 % of control and 101 % of control
active: dose: 100.0 mg/kg/injection, schedule: Q01DX009 (ip), vehicle: Klucel (hydroxypropylcellulose) (HPC) 151 % of control

CCOC(=O)C1(c2ccccc2)C(=O)Oc2ccccc21 (configuration not stated)
inactive: [7] 98 % of control | [8] 94 % of control and 96 % of control | [9] 89 % of control and 104 % of control | [1] 89 % of control and 93 % of control | [15] 89 % of control | [16] 87 % of control and 91 % of control

CCCCCCNC(=O)Nc1ccc(Cl)c(Cl)c1
inactive: [10] 92 % of control | [11] 93 % of control

O=C1/C(=C/c2ccccc2)CCCC1/C=C/c1ccccc1 (configuration not stated)
inactive: [6] 100 % of control | [10] 100 % of control | [11] 97 % of control

CCOC(=O)CCC(C#N)(CC(=O)OCC)C(=O)OCC (configuration not stated)
inactive: [13] 96 % of control | [14] 104 % of control | dose: 400.0 mg/kg/injection, schedule: Q01DX001 (ip), vehicle: saline with Tween-80 104 % of control

CC1CC2CCC1C2O (configuration not stated)
inactive: dose: 75.0 mg/kg/injection, schedule: Q01DX001 (ip), vehicle: saline 98 % of control | [3] 91 % of control | [4] 87 % of control
